Laboratory results from the supplement of paper PMC10307832.

Legend:
Assay in all cases: relative viability (nuclei count vs DMSO), 5 days (fraction); higher = more cells survive
CUDC-101 + Luminespib = compound: C#Cc1cccc(Nc2ncnc3cc(OC)c(OCCCCCCC(=O)NO)cc23)c1 [CUDC-101] + CCNC(=O)c1noc(-c2cc(C(C)C)c(O)cc2O)c1-c1ccc(CN2CCOCC2)cc1 [Luminespib] (partner 0.01 µM)
Method in brief: (§1)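 A single step with final 0.05% Triton X-100, 1% formaldehyde and 1 ug/ml Hoechst fixed the cells and stained nuclei 5 days after treatment. Lung cancer cell lines in 1536-well plates had been treated by pin tool the day after seeding with one drug alone or a fixed anchor-drug dose plus five library-drug doses (not always all listed) in √10 steps, and nuclei were counted on 4× images. Relative viability is the ratio of nuclei in treated wells to nuclei in vehicle wells, taken as the median of duplicate plates.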

CUDC-101 + Phenformin = compound: C#Cc1cccc(Nc2ncnc3cc(OC)c(OCCCCCCC(=O)NO)cc23)c1 [CUDC-101] + N=C(N)NC(=N)NCCc1ccccc1 [Phenformin] (partner 250 µM)
Method in brief: as §1

Vandetanib + Palbociclib = compound: COc1cc2/c(=N/c3ccc(Br)cc3F)nc[nH]c2cc1OCC1CCN(C)CC1 [Vandetanib] + CC(=O)c1c(C)c2cnc(Nc3ccc(N4CCNCC4)cn3)nc2n(C2CCCC2)c1=O [Palbociclib] (partner 0.5 µM)
Method in brief: as §1

Vandetanib + Dasatinib = compound: COc1cc2/c(=N/c3ccc(Br)cc3F)nc[nH]c2cc1OCC1CCN(C)CC1 [Vandetanib] + Cc1nc(Nc2ncc(C(=O)Nc3c(C)cccc3Cl)s2)cc(N2CCN(CCO)CC2)n1 [Dasatinib] (partner 0.075 µM)
Method in brief: as §1

Row | Cell Line | relative viability (CUDC-101 + Luminespib; first compound 0.01 µM) | relative viability (CUDC-101 + Luminespib; first compound 0.03162 µM) | relative viability (CUDC-101 + Luminespib; first compound 0.1 µM) | relative viability (CUDC-101 + Luminespib; first compound 0.3162 µM) | relative viability (CUDC-101 + Luminespib; first compound 1 µM) | relative viability (CUDC-101 + Phenformin; first compound 0.01 µM) | relative viability (CUDC-101 + Phenformin; first compound 0.03162 µM) | relative viability (CUDC-101 + Phenformin; first compound 0.1 µM) | relative viability (CUDC-101 + Phenformin; first compound 0.3162 µM) | relative viability (CUDC-101 + Phenformin; first compound 1 µM) | relative viability (Vandetanib + Palbociclib; first compound 0.02 µM) | relative viability (Vandetanib + Palbociclib; first compound 0.06325 µM) | relative viability (Vandetanib + Palbociclib; first compound 0.2 µM) | relative viability (Vandetanib + Palbociclib; first compound 0.6325 µM) | relative viability (Vandetanib + Palbociclib; first compound 2 µM) | relative viability (Vandetanib + Dasatinib; first compound 0.02 µM) | relative viability (Vandetanib + Dasatinib; first compound 0.06325 µM) | relative viability (Vandetanib + Dasatinib; first compound 0.2 µM) | relative viability (Vandetanib + Dasatinib; first compound 0.6325 µM) | relative viability (Vandetanib + Dasatinib; first compound 2 µM)
1 | 201T | 1.03 | 0.988 | 0.981 | 1.08 | 1.02 | 0.438 | 0.442 | 0.424 | 0.411 | 0.358 | 0.35 | 0.353 | 0.332 | 0.314 | 0.335 | 0.573 | 0.527 | 0.578 | 0.589 | 0.575
2 | A549 |  |  |  |  |  | 0.172 | 0.192 | 0.143 | 0.158 | 0.141 |  |  |  |  |  |  |  |  |  | 
3 | A-427 | 0.919 | 0.92 | 0.864 | 0.75 | 0.55 | 0.328 | 0.347 | 0.464 | 0.502 | 0.389 | 0.508 | 0.497 | 0.485 | 0.531 | 0.503 | 0.721 | 0.697 | 0.638 | 0.704 | 0.702
4 | ABC-1 | 0.519 | 0.368 | 0.721 | 0.586 | 0.258 | 0.256 | 0.256 | 0.212 | 0.247 | 0.186 | 0.91 | 0.541 | 0.693 | 0.708 | 0.643 | 0.423 | 0.547 | 0.605 | 0.614 | 0.367
5 | BEN | 0.534 | 0.402 | 0.467 | 0.302 | 0.37 | 0.29 | 0.259 | 0.239 | 0.256 | 0.209 | 0.458 | 0.46 | 0.443 | 0.479 | 0.448 | 0.309 | 0.331 | 0.271 | 0.286 | 0.288
6 | CAL-12T | 0.525 | 0.337 | 0.337 | 0.556 | 0.36 | 0.67 | 0.563 | 0.617 | 0.616 | 0.513 | 0.562 | 0.474 | 0.482 | 0.22 | 0.172 | 0.426 | 0.407 | 0.387 | 0.29 | 0.32
7 | COR-L23 | 0.801 | 0.734 | 0.658 | 0.632 | 0.353 | 0.479 | 0.456 | 0.419 | 0.365 | 0.25 | 0.345 | 0.27 | 0.294 | 0.318 | 0.268 | 0.485 | 0.438 | 0.462 | 0.446 | 0.564
8 | COR-L 105 | 0.768 | 0.701 | 0.845 | 0.831 | 0.476 | 0.627 | 0.481 | 0.447 | 0.528 | 0.198 | 0.388 | 0.442 | 0.392 | 0.38 | 0.39 | 0.337 | 0.322 | 0.271 | 0.281 | 0.184
9 | ChaGo-K-1 | 0.74 | 0.522 | 0.625 | 0.709 | 0.609 | 0.467 | 0.542 | 0.508 | 0.558 | 0.41 | 0.921 | 0.881 | 0.19 | 0.887 | 0.927 | 0.581 | 0.63 | 0.269 | 0.584 | 0.607
